From patent US8481531B2, “Bicyclic heterocyclyl derivatives as FGFR kinase inhibitors for therapeutic use” (Astex Therapeutics Ltd, priority 2009, dated 2013)

Columns and labels:
FGFR3 = target: T1, FGFR3 (Homo sapiens, UniProt P22607); test: FGFR3 in vitro kinase inhibitory activity assay (TRF); format: biochemical; details: 8 μM ATP, 3 hours; read-out: FGFR3 IC50(μM) or % I
T1 construct: purchased Upstate
Description: (§1) FGFR3, VEGFR2 and PDGFR in vitro Kinase Inhibitory Activity Assays
(§2) Enzymes (from Upstate), prepared at 2× final concentration, were incubated with test compounds, biotinylated Flt3 substrate (biotin-VASSDNEYFYVDF) (Cell Signalling Technology Inc.) and ATP in the appropriate assay buffer (Table 1). The reaction was allowed to proceed for 3 hours (FGFR3), 1 hour (VEGFR2, PDGFR-beta) at room temperature on a plate shaker at 700 rpm before being stopped with 35 mM EDTA, pH 8 (FGFR3, VEGFR2) or 55 mM EDTA, pH 8 (PDGFR-beta). 5× detection mix (50 mM HEPES pH 7.5, 0.1% BSA, 11.34 nM Eu-anti-pY (PY20) (PerkinElmer) 74 nM SA-XL665 (Cisbio) for FGFR3, 50 mM HEPES, pH 7.5, 0.1% BSA, 11.34 nM Eu-anti-pY (PY20), 187.5 nM SA-XL665 for VEGFR2 and 50 mM HEPES, pH 7.5, 0.1% BSA, 11.34 nM Eu-anti-pY (PT66) (PerkinElmer), 375 nM SA-XL665 (Cisbio) for PDGFR-beta) was then added to each well and the plate sealed and incubated at room temperature for one hour on a plate shaker at 700 rpm. The plate was then read on a Packard Fusion plate reader or a BMG Pherastar both in TRF mode.

Ba/F3-TEL-FGFR3 cells = target: T2, Ba/F3-TEL-FGFR3 cells (Homo sapiens, UniProt P22607); test: Ba/F3-TEL-FGFR3 cell proliferation assay (Alamar Blue); format: cell-based; details: 72 hours; read-out: BaF3-TEL-FGFR3 prolif
T2 construct: fused on or other part: P41212 (Transcription factor ETV6)
Description: (§3) Ba/F3-TEL-FGFR3 & Ba/F3 (WT) Cell Proliferation Assays
(§4) Stably transfected Ba/F3-TEL-FGFR3 cells were plated out into black 96-well tissue culture plates with clear bottoms in RPMI medium containing 10% FBS and 0.25 mg/ml G418 at a density of 5×10^3 cells/well (200 μl per well). The parental wild-type Ba/F3 cells (DSMZ no.: ACC 300) were plated out into black 96-well tissue culture plates with clear bottoms in RPMI medium containing 10% FBS and 2 ng/ml mouse IL-3 (R&D Systems) at a density of 2.5×10^3 cells/well (200 μl per well). Plates were placed in an incubator overnight before adding the compounds the following day. Dilutions of compounds were made in DMSO starting at 10 mM and were diluted into the wells to give a final DMSO concentration of 0.1% in assay. Compounds were left on the cells for 72 hours before the plates were removed from the incubator and 20 μl of Alamar Blue™ (Biosource) was added to each well. Plates were placed in the incubator for 4-6 hours before reading plates at 535 nm (excitation)/590 nm (emission) on a Fusion plate reader (Packard). Where inhibition is high an IC50 can be determined.

VEGFR2 = target: T3, VEGFR2 (Homo sapiens, UniProt P35968); test: VEGFR2 in vitro kinase inhibitory activity assay (TRF); format: biochemical; details: 0.5 μM ATP, 1 hour; read-out: VEGFR2 IC50(μM) or % I
T3 construct: purchased Upstate
Description: as §1, §2

[1] = test system: parental wild-type Ba/F3 cells; test: Ba/F3 (WT) cell proliferation assay (Alamar Blue); format: cell-based; details: BaF3, 72 hours, read-out: BaF3 WT prolif; for IC50: with mouse IL-3
Description: as §3, §4

T1 sequence (P22607 23-806): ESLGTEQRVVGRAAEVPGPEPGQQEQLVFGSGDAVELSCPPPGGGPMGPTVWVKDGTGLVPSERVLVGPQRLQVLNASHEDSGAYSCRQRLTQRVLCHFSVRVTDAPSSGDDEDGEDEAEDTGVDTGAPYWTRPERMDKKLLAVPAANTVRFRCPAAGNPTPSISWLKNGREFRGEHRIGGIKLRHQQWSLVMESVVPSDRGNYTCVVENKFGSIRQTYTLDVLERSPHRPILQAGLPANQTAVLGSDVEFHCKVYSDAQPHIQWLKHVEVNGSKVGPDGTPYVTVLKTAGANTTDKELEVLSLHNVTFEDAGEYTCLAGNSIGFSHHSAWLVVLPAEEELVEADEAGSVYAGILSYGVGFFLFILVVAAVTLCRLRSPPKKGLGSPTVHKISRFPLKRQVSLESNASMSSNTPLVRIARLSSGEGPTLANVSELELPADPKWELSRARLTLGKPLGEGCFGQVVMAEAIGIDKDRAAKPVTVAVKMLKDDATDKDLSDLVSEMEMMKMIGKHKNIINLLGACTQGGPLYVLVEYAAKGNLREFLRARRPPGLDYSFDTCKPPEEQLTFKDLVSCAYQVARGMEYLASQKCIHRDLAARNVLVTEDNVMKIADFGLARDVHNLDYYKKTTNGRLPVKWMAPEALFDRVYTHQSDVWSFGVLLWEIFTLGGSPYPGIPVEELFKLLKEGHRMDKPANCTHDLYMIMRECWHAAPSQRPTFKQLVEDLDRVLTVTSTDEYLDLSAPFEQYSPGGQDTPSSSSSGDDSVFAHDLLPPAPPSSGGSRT
T3 sequence (P35968 20-1356): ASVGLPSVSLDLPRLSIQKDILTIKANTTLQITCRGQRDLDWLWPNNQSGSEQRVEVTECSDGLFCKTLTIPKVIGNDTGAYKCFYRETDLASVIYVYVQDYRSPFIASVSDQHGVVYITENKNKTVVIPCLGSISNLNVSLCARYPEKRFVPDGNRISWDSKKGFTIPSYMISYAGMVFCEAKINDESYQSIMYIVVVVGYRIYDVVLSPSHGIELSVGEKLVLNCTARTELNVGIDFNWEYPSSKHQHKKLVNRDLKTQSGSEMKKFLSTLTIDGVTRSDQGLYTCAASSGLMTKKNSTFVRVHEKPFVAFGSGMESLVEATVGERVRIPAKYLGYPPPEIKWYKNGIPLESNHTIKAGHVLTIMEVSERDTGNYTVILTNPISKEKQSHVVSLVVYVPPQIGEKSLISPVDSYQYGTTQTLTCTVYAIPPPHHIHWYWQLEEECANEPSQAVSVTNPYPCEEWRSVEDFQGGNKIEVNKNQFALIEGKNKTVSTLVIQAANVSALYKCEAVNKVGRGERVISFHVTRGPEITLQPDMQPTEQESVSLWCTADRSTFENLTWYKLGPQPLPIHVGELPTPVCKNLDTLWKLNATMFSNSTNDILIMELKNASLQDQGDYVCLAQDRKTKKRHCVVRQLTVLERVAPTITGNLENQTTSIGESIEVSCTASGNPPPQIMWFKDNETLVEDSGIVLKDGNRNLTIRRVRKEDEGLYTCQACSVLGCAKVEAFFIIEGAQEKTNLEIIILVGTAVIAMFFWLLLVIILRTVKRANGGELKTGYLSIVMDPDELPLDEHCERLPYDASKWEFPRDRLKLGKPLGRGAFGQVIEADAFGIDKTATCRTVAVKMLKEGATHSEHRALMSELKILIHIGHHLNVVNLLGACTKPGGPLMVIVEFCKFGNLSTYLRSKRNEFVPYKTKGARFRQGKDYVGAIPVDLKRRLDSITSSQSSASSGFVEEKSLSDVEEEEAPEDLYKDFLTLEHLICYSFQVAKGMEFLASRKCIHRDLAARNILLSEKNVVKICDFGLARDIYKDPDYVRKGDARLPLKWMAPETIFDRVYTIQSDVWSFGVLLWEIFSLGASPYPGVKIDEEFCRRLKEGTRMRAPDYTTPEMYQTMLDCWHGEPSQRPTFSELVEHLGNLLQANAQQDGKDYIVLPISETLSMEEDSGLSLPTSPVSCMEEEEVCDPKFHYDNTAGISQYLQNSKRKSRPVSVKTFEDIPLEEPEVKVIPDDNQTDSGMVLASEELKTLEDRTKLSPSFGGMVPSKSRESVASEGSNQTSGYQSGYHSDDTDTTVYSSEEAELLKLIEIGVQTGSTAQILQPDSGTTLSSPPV
T2 sequence (P22607 whole entry, change not shown, the tested form may be a part): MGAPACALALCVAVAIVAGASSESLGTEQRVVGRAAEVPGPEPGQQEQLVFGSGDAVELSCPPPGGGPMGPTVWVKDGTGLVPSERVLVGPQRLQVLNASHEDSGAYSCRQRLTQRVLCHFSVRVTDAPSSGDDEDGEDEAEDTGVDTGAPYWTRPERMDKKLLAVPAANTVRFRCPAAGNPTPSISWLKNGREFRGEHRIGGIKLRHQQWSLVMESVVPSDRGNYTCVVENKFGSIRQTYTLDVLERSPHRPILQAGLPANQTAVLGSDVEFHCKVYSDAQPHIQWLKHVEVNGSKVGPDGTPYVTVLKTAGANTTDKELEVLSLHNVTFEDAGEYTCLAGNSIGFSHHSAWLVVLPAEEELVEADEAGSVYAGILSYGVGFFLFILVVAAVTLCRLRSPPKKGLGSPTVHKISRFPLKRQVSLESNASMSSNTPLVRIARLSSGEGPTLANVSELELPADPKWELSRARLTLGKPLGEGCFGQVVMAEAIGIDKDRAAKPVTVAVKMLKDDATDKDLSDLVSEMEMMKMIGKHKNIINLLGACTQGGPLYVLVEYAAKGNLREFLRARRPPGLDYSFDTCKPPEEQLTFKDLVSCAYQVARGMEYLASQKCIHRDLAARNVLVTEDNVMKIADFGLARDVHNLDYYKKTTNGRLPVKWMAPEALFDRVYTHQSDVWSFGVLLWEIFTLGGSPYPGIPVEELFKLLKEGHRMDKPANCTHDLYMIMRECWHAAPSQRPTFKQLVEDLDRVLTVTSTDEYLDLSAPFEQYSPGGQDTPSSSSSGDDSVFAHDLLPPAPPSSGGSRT

| Structure (SMILES) | IC50 (FGFR3) [µM] | GI50 (Ba/F3-TEL-FGFR3 cells) [µM] | IC50 (VEGFR2) [µM] | IC50 [1] [µM] | inhibition at 10 µM ([1]; Mus musculus) [%] | inhibition at 3 µM ([1]; Mus musculus) [%] | inhibition at 1 µM ([1]; Mus musculus, % at 1.00 μM) [%] |
| --- | --- | --- | --- | --- | --- | --- | --- |
| O=C(NCC(F)(F)F)Nc1cccc(-c2cnc3cc(/C(=N\OCCO)C4CC4)ccn23)c1 [Compound 1-33, 1-[3-(7-{Cyclopropyl-[2-hydroxy-ethoxyimino]-methyl}-imidazo[1,2-a]pyridin-3-yl)-phenyl]-3-(2,2,2-trifluoro-ethyl)-urea] | 0.018 | 0.25 | 0.18 | 11 |  |  |  |
| CN(CCON=Cc1ccn2c(-c3cccc(NC(=O)NCC(F)(F)F)c3)cnc2c1)CCS(C)(=O)=O [Compound 1-42, 1-{3-[7-({2-[(2-Methanesulfonyl-ethyl)-methyl-amino]-ethoxyimino}-methyl)-imidazo[1,2-a]pyridin-3-yl]-phenyl}-3-(2,2,2-trifluoro-ethyl)-urea] | 0.017 | 1.3 | 0.54 |  | 10 |  |  |
| CON=C(c1ccn2c(-c3cccc(NC(=O)NCC(F)(F)F)c3)cnc2c1)C1CC1 [Compound 1-24, 1-[3-(7-{Cyclopropyl-methoxyimino-methyl}-imidazo[1,2-a]pyridin-3-yl)-phenyl]-3-(2,2,2-trifluoro-ethyl)-urea] | 0.015 | 0.26 | 0.23 |  |  |  | 38 |
| O=C(NCC(F)(F)F)Nc1cccc(-c2cnc3cc(C=NOCC(O)CNC4CC4)ccn23)c1 (centres unmarked) [Compound 1-61, 1-(3-{7-[(3-Cyclopropylamino-2-hydroxy-propoxyimino)-methyl]-imidazo[1,2-a]pyridin-3-yl}-phenyl)-3-(2,2,2-trifluoro-ethyl)-urea] | 0.029 | 0.93 | 0.44 |  |  | 30 |  |
| O=C(NCC(F)(F)F)Nc1cccc(-c2cnc3cc(C(=NO)C4CC4)ccn23)c1 [Compound 1-50, 1-[3-(7-{Cyclopropyl-hydroxyimino-methyl}-imidazo[1,2-a]pyridin-3-yl)-phenyl]-3-(2,2,2-trifluoro-ethyl)-urea] | 0.0097 | 0.3 | 0.23 |  | 62 |  |  |
| O=C(NCC(F)(F)F)Nc1cccc(-c2cnc3cc(C=NOCCCN4CCOCC4)ccn23)c1 [Compound 1-3, 1-(3-{7-[(3-Morpholin-4-yl-propoxyimino)-methyl]-imidazo[1,2-a]pyridin-3-yl}-phenyl)-3-(2,2,2-trifluoro-ethyl)-urea] | 0.018 | 0.31 | 0.682 | 2.8 |  |  |  |
| COCCN1CCC(CCON=Cc2ccn3c(-c4cccc(NC(=O)NCC(F)(F)F)c4)cnc3c2)CC1 [Compound 1-48, 1-{3-[7-({2-[1-(2-Methoxy-ethyl)-piperidin-4-yl]-ethoxyimino}-methyl)-imidazo[1,2-a]pyridin-3-yl]-phenyl}-3-(2,2,2-trifluoro-ethyl)-urea] | 0.023 | 0.6 | 0.4 | 1.8 |  |  |  |
| CC(C)Oc1cc(NC(=O)NCC(F)(F)F)cc(-c2cnc3cc(/C(=N/O)C4CC4)ccn23)c1 [Compound 1-31, 1-[3-(7-{Cyclopropyl-hydroxyimino-methyl}-imidazo[1,2-a]pyridin-3-yl)-5-isopropoxy-phenyl]-3-(2,2,2-trifluoro-ethyl)-urea] | 0.023 | 0.47 | 1.34 | 6.2 |  |  |  |
| C/C(=N\OCCCN1CCOCC1)c1ccn2c(-c3cccc(NC(=O)NCC(F)(F)F)c3)cnc2c1 [Compound 1-44, 1-[3-(7-{1-3-Morpholin-4-yl-propoxyimino-ethyl}-imidazo[1,2-a]pyridin-3-yl)-phenyl]-3-(2,2,2-trifluoro-ethyl)-urea] | 0.0038 |  | 0.059 |  |  |  |  |
| Cn1cncc1CO/N=C/c1ccn2c(-c3cccc(NC(=O)NCC(F)(F)F)c3)cnc2c1 [Compound 1-20, 1-(3-{7-[(3-Methyl-3H-imidazol-4-ylmethoxyimino)-methyl]-imidazo[1,2-a]pyridin-3-yl}-phenyl)-3-(2,2,2-trifluoro-ethyl)-urea] | 0.0071 |  | 0.36 |  |  |  |  |
| COCCN(C)CCON=Cc1ccn2c(-c3cccc(NC(=O)NCC(F)(F)F)c3)cnc2c1 [Compound 1-40, 1-{3-[7-({2-[(2-Methoxy-ethyl)-methyl-amino]-ethoxyimino}-methyl)-imidazo[1,2-a]pyridin-3-yl]-phenyl}-3-(2,2,2-trifluoro-ethyl)-urea] | 0.028 |  | 0.72 |  |  |  |  |
| CC(C)Oc1cc(NC(=O)NCC(F)(F)F)cc(-c2cnc3cc(/C(=N\OCCO)C4CC4)ccn23)c1 [Compound 1-64, 1-[3-(7-{Cyclopropyl-[(Z)-2-hydroxyethoxyimino]-methyl}-imidazo[1,2-a]pyridin-3-yl)-5-isopropoxy-phenyl]-3-(2,2,2-trifluoro-ethyl)-urea] | 0.03 | 0.5 | 1.2 |  |  |  |  |

Further lines, with some results ahead:

| IC50 (FGFR3) [µM] | GI50 (Ba/F3-TEL-FGFR3 cells) [µM] | IC50 (VEGFR2) [µM] | Structure (SMILES) | IC50 [1] [µM] | inhibition at 10 µM ([1]; Mus musculus) [%] | inhibition at 3 µM ([1]; Mus musculus) [%] | inhibition at 1 µM ([1]; Mus musculus, % at 1.00 μM) [%] |
| --- | --- | --- | --- | --- | --- | --- | --- |
| 0.013 |  | 0.48 | O=C(NCC(F)(F)F)Nc1cccc(-c2cnc3cc(C=NOCc4ccccn4)ccn23)c1 [Compound 1-6, 1-(3-{7-[(Pyridin-2-ylmethoxyimino)-methyl]-imidazo[1,2-a]pyridin-3-yl}-phenyl)-3-(2,2,2-trifluoro-ethyl)-urea] |  |  |  |  |
| 0.026 | 0.043 | 0.98 | O=C(NCC(F)(F)F)Nc1cccc(-c2cnc3cc(C=NOCc4ccco4)ccn23)c1 [Compound 1-15, 1-(3-{7-[(Furan-2-ylmethoxyimino)-methyl]-imidazo[1,2-a]pyridin-3-yl}-phenyl)-3-(2,2,2-trifluoro-ethyl)-urea] | 4.6 |  |  |  |
| 0.0313 | 2.3 | 0.877 | O=C(NCC(F)(F)F)Nc1cccc(-c2cnc3cc(C=NOc4ncccn4)ccn23)c1 [Compound 1-5, 1-(3-{7-[(Pyrimidin-2-yloxyimino)-methyl]-imidazo[1,2-a]pyridin-3-yl}-phenyl)-3-(2,2,2-trifluoro-ethyl)-urea] |  | 10 |  |  |
| 0.035 | 0.48 | 0.81 | COCCNCCON=Cc1ccn2c(-c3cccc(NC(=O)NCC(F)(F)F)c3)cnc2c1 [Compound 1-53, 1-[3-(7-{[2-(2-Methoxy-ethylamino)-ethoxyimino]-methyl}-imidazo[1,2-a]pyridin-3-yl)-phenyl]-3-(2,2,2-trifluoro-ethyl)-urea] | 13 |  |  |  |
| 0.022 | 0.57 | 0.33 | O=C(NCC(F)(F)F)Nc1cccc(-c2cnc3cc(C(=NO)C4CCC4)ccn23)c1 [Compound 1-28, 1-[3-(7-{Cyclobutyl-hydroxyimino-methyl}-imidazo[1,2-a]pyridin-3-yl)-phenyl]-3-(2,2,2-trifluoro-ethyl)-urea] |  |  | 43 |  |
| 0.024 | 6.6 | 0.52 | O=C(NCC(F)(F)F)Nc1cccc(-c2cnc3cc(C=NOCC(O)CN4CCC(O)CC4)ccn23)c1 (centres unmarked) [Compound 1-43, 1-[3-(7-{[2-Hydroxy-3-(4-hydroxy-piperidin-1-yl)-propoxyimino]-methyl}-imidazo[1,2-a]pyridin-3-yl)-phenyl]-3-(2,2,2-trifluoro-ethyl)-urea] |  | 0 |  |  |
| 0.013 | 0.23 | 0.66 | Cc1cc(CON=Cc2ccn3c(-c4cccc(NC(=O)NCC(F)(F)F)c4)cnc3c2)no1 [Compound 1-17, 1-(3-{7-[(5-Methyl-isoxazol-3-ylmethoxyimino)-methyl]-imidazo[1,2-a]pyridin-3-yl}-phenyl)-3-(2,2,2-trifluoro-ethyl)-urea] | 4.1 |  |  |  |
| 0.0051 |  | 0.092 | CO/N=C(\C)c1ccn2c(-c3cccc(NC(=O)NCC(F)(F)F)c3)cnc2c1 [Compound 1-22] |  |  |  |  |
| 0.014 |  | 0.68 | Cc1nc(CON=Cc2ccn3c(-c4cccc(NC(=O)NCC(F)(F)F)c4)cnc3c2)cs1 [Compound 1-9, 1-(3-{7-[(2-Methyl-thiazol-4-ylmethoxyimino)-methyl]-imidazo[1,2-a]pyridin-3-yl}-phenyl)-3-(2,2,2-trifluoro-ethyl)-urea] |  |  |  |  |
